# Where “and” joins values, the source holds several entries; their conditions need not be identical. Equal entries are not always repeated.
# System: 276233-004-R-J1-PDC KRAS spheroids with HUVEC/MSC, viability
# Assay: Anticancer human tumor 276233-004-R-J1-PDC patient-derived colon adenocarcinoma cell line growth inhibition [KRAS2]
# Details: for viability, T/C: stronger effect = lower value
# Outline: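 Combination screen of spheroid viability in tumor-cell co-cultures with endothelial (HUVEC) and mesenchymal stem cell stroma. Each agent was tested in half-log dilutions, topping at clinical Cmax or at 10 microM without a known Cmax.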
# [1] = curve of first compound, second compound 0.0316 µM
# [2] = curve of first compound, second compound 0.1 µM
# [3] = curve of first compound, second compound 0.316 µM
# [4] = curve of first compound, second compound 1 µM
# [5] = curve of first compound, second compound 3.16 µM
# [6] = second compound 0.0316 µM, first compound 0.0316 µM
# [7] = second compound 0.0316 µM, first compound 0.1 µM
# [8] = second compound 0.1 µM, first compound 0.0316 µM
# [9] = second compound 0.1 µM, first compound 0.1 µM
# [10] = second compound 0.316 µM, first compound 0.0316 µM
# [11] = second compound 0.316 µM, first compound 0.1 µM
# [12] = second compound 1 µM, first compound 0.0316 µM
# [13] = second compound 1 µM, first compound 0.1 µM
# [14] = second compound 3.16 µM, first compound 0.0316 µM
# [15] = second compound 3.16 µM, first compound 0.1 µM
# 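Note: cells exposed to agents for seven days before viability read.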
# 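Throughout, for viability, T/C: 100% = DMSO vehicle control wells and lower values mean fewer viable cells.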
compound,measurement,setting,value
CC(C)NCC(C(=O)N1CCN(c2ncnc3c2C(C)CC3O)CC1)c1ccc(Cl)cc1 (stereo not drawn) + C=CC(=O)N1CCN(c2nc(OCC3CCCN3C)nc3c2CCN(c2cccc4cccc(C)c24)C3)CC1CC#N,IC50,[1],> 10000 nM
same,IC50,[2],> 10000 nM
same,IC50,[3],> 10000 nM
same,IC50,[4],> 10000 nM
same,IC50,[5],< 31.6 nM
same,"viability, T/C",[6],97.3%
same,"viability, T/C",[7],93.5%
same,"viability, T/C","second compound 0.0316 µM, first compound 0.316 µM",84.8%
same,"viability, T/C","second compound 0.0316 µM, first compound 1 µM",63.7%
same,"viability, T/C","second compound 0.0316 µM, first compound 3.16 µM",66.3%
same,"viability, T/C","second compound 0.0316 µM, first compound 10 µM",64.9%
same,"viability, T/C",[8],80.6%
same,"viability, T/C",[9],81.7%
same,"viability, T/C","second compound 0.1 µM, first compound 0.316 µM",67.6%
same,"viability, T/C","second compound 0.1 µM, first compound 1 µM",64.6%
same,"viability, T/C","second compound 0.1 µM, first compound 3.16 µM",85.4%
same,"viability, T/C","second compound 0.1 µM, first compound 10 µM",76.9%
same,"viability, T/C",[10],66.8%
same,"viability, T/C",[11],81.4%
same,"viability, T/C","second compound 0.316 µM, first compound 0.316 µM",72.8%
same,"viability, T/C","second compound 0.316 µM, first compound 1 µM",65.5%
same,"viability, T/C","second compound 0.316 µM, first compound 3.16 µM",63.2%
same,"viability, T/C","second compound 0.316 µM, first compound 10 µM",58.7%
same,"viability, T/C",[12],60.4%
same,"viability, T/C",[13],65.6%
same,"viability, T/C","second compound 1 µM, first compound 0.316 µM",65%
same,"viability, T/C","second compound 1 µM, first compound 1 µM",61.9%
same,"viability, T/C","second compound 1 µM, first compound 3.16 µM",64.8%
same,"viability, T/C","second compound 1 µM, first compound 10 µM",58.4%
same,"viability, T/C",[14],37.6%
same,"viability, T/C",[15],46.9%
same,"viability, T/C","second compound 3.16 µM, first compound 0.316 µM",44%
same,"viability, T/C","second compound 3.16 µM, first compound 1 µM",22%
same,"viability, T/C","second compound 3.16 µM, first compound 3.16 µM",32%
same,"viability, T/C","second compound 3.16 µM, first compound 10 µM",27.3%
CC1COCCN1c1cc(-c2ccnn2C)c2ccnc(-c3ccn[nH]3)c2n1 (stereo not drawn),"viability, T/C",compound 0.01 µM,96.2% [middle of 5 runs]
same,"viability, T/C",compound 0.1 µM,82% [middle of 5 runs]
same,IC50,curve of compound,> 3160 nM and 735 nM
Cn1ncnc1[C@H]1c2n[nH]c(=O)c3cc(F)cc(c23)N[C@@H]1c1ccc(F)cc1 + C=CC(=O)N1CCN(c2nc(OCC3CCCN3C)nc3c2CCN(c2cccc4cccc(C)c24)C3)CC1CC#N,IC50,[1],> 100 nM
same,IC50,[2],> 100 nM
same,IC50,[3],> 100 nM
same,IC50,[4],> 100 nM
same,IC50,[5],> 100 nM
same,"viability, T/C","second compound 0.0316 µM, first compound 0.000316 µM",111%
same,"viability, T/C","second compound 0.0316 µM, first compound 0.001 µM",107%
same,"viability, T/C","second compound 0.0316 µM, first compound 0.00316 µM",88%
same,"viability, T/C","second compound 0.0316 µM, first compound 0.01 µM",119%
same,"viability, T/C",[6],97.7%
same,"viability, T/C",[7],92.8%
same,"viability, T/C","second compound 0.1 µM, first compound 0.000316 µM",107%
same,"viability, T/C","second compound 0.1 µM, first compound 0.001 µM",113%
same,"viability, T/C","second compound 0.1 µM, first compound 0.00316 µM",103%
same,"viability, T/C","second compound 0.1 µM, first compound 0.01 µM",98%
same,"viability, T/C",[8],77.3%
same,"viability, T/C",[9],86.3%
same,"viability, T/C","second compound 0.316 µM, first compound 0.000316 µM",100%
same,"viability, T/C","second compound 0.316 µM, first compound 0.001 µM",107%
same,"viability, T/C","second compound 0.316 µM, first compound 0.00316 µM",113%
same,"viability, T/C","second compound 0.316 µM, first compound 0.01 µM",115%
same,"viability, T/C",[10],85.5%
same,"viability, T/C",[11],91.6%
same,"viability, T/C","second compound 1 µM, first compound 0.000316 µM",99%
same,"viability, T/C","second compound 1 µM, first compound 0.001 µM",118%
same,"viability, T/C","second compound 1 µM, first compound 0.00316 µM",105%
same,"viability, T/C","second compound 1 µM, first compound 0.01 µM",116%
same,"viability, T/C",[12],88.9%
same,"viability, T/C",[13],110%
same,"viability, T/C","second compound 3.16 µM, first compound 0.000316 µM",74.9%
same,"viability, T/C","second compound 3.16 µM, first compound 0.001 µM",77.6%
same,"viability, T/C","second compound 3.16 µM, first compound 0.00316 µM",57.1%
same,"viability, T/C","second compound 3.16 µM, first compound 0.01 µM",52.6%
same,"viability, T/C",[14],65%
same,"viability, T/C",[15],72%
